Where two headings read alike, the source gives them in different places.
Biological target: T1, NR2F6 (Homo sapiens, UniProt P10588)
T1 construct: expressed in transfected cells; also transient transfection
T1 sequence (P10588 1-404): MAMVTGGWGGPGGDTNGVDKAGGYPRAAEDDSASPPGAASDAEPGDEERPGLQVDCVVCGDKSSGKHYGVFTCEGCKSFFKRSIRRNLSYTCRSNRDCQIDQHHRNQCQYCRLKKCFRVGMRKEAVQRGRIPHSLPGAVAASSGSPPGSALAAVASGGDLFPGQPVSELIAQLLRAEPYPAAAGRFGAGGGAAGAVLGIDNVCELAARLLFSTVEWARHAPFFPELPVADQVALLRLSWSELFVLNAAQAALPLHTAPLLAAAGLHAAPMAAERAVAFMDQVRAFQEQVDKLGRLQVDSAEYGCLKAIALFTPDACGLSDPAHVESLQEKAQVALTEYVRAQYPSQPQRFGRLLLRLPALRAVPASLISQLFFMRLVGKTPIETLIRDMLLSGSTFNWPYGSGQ
Experiment: NR2F6 agonist screening, Firefly signal cmpd/DMSO
Type: cell-based
Parameters: Firefly NR2F6 full length, cmpd/DMSO (mean) / Firefly F4, cmpd/DMSO (mean): unit of the concentration uncertain
Details: for Firefly/Renilla (NR2F6 stable, clone F4): ratio Firefly/Renilla; for Firefly, NR2F6 stable (clone F4)/pGL4: ratio of Firefly in NR2F6 stable clone F4 to pGL4

[1] = C11 analogs follow set (Tables 2-10)
[2] = Concentration 2 (unit uncertain)
[3] = Concentration 10 (unit uncertain)
[4] = Concentration 40 (unit uncertain)

CC(=O)Nc1ccc(Cl)c2nonc12 [Compound Z113]
Firefly, cmpd/DMSO (mean): 1.0 | Firefly, cmpd/DMSO (mean) (Concentration 2): 1.3 | F4, cmpd/DMSO (mean) (Concentration 2): 1.2 | Firefly, cmpd/DMSO (mean) (Concentration 10): 1.1 | F4, cmpd/DMSO (mean) (Concentration 10): 1.5 | Firefly, cmpd/DMSO (mean) (Concentration 40): 0.9 | F4, cmpd/DMSO (mean) (Concentration 40): 1.2

O=C(NCc1ccc(F)cc1)c1ccc2oc(=O)c(S(=O)(=O)c3ccc(Cl)cc3)cc2c1 [Compound C119]
Firefly, cmpd/DMSO repeat 1 [1]: 18.4 | Firefly, cmpd/DMSO repeat 2 [1]: 16.2

CC(C)(C)c1ccc(S(=O)(=O)c2cc3cc(Br)ccc3oc2=O)cc1 [Compound C200]
Firefly, cmpd/DMSO repeat 1 [1]: 11.0 | Firefly, cmpd/DMSO repeat 2 [1]: 8.1 | Firefly/Renilla (NR2F6 stable, clone F4) (Table 13): 1.2 | Firefly, NR2F6 stable (clone F4)/pGL4 (Table 13): 5.4 | Firefly, cmpd/DMSO repeat 1 (Table 13): 11.0 | Firefly, cmpd/DMSO repeat 2 (Table 13): 8.1

Cc1ccc2oc(=O)c(S(=O)(=O)c3cccc(Cl)c3)cc2c1 [Compound C300]
Firefly/Renilla (NR2F6 stable, clone F4) (Table 13): 1.6 | Firefly, NR2F6 stable (clone F4)/pGL4 (Table 13): 4.3 | Firefly, cmpd/DMSO repeat 1 (Table 13): 9.8 | Firefly, cmpd/DMSO repeat 2 (Table 13): 7.4

Cc1cc(C)cc(NC(=O)c2ccc3oc(=O)c(S(=O)(=O)c4ccc(F)cc4)cc3c2)c1 [Compound C176]
Firefly, cmpd/DMSO repeat 1 [1]: 3.7 | Firefly, cmpd/DMSO repeat 2 [1]: 9.6

COc1ccc(-c2noc(Cn3ncc(C)cc3=O)n2)cc1 [Compound Z152]
Firefly, cmpd/DMSO (mean): 1.6

Cc1ccc(S(=O)(=O)c2cc3cc(C(=O)Nc4cccc(C)c4C)ccc3oc2=O)cc1 [Compound C134]
Firefly, cmpd/DMSO repeat 1 [1]: 38.1 | Firefly, cmpd/DMSO repeat 2 [1]: 31.9 | Firefly/Renilla (NR2F6 stable, clone F4) (Table 12): 1.8 | Firefly, NR2F6 stable (clone F4)/pGL4 (Table 12): 7.7 | Firefly, cmpd/DMSO repeat 1 (Table 12): 38.1 | Firefly, cmpd/DMSO repeat 2 (Table 12): 31.9

COc1ccccc1-c1noc(COc2nccc(C)n2)n1 [Compound Z149]
Firefly, cmpd/DMSO (mean): 1.5

CCOc1cccc2cc(S(=O)(=O)c3ccc(OC)c(OC)c3)c(=O)oc12 [Compound C248]
Firefly, cmpd/DMSO repeat 1 (Table 9): 8.6 | Firefly, cmpd/DMSO repeat 2 (Table 9): 4.3 | Firefly/Renilla (NR2F6 stable, clone F4) (Table 12): 2.8 | Firefly, NR2F6 stable (clone F4)/pGL4 (Table 12): 4.6 | Firefly, cmpd/DMSO repeat 1 (Table 12): 8.6 | Firefly, cmpd/DMSO repeat 2 (Table 12): 4.3

COc1ccc(S(=O)(=O)c2cc3cc(Cl)ccc3oc2=O)cc1OC [Compound C155]
Firefly, cmpd/DMSO repeat 1 [1]: 37.3 | Firefly, cmpd/DMSO repeat 2 [1]: 33.3 | Firefly/Renilla (NR2F6 stable, clone F4) (Table 12): 2.0 | Firefly, NR2F6 stable (clone F4)/pGL4 (Table 12): 10.9 | Firefly, cmpd/DMSO repeat 1 (Table 12): 37.3 | Firefly, cmpd/DMSO repeat 2 (Table 12): 33.3

O=c1oc2ccc(Cl)cc2cc1S(=O)(=O)c1ccc(Br)cc1 [Compound C204]
Firefly, cmpd/DMSO repeat 1 [1]: 5.0 | Firefly, cmpd/DMSO repeat 2 [1]: 5.8

COc1ccc(NC(=O)c2ccc3oc(=O)c(S(=O)(=O)c4ccc(Cl)cc4)cc3c2)cc1OC [Compound C122]
Firefly, cmpd/DMSO repeat 1 [1]: 4.4 | Firefly, cmpd/DMSO repeat 2 [1]: 5.7

COc1ccccc1-c1noc(Cn2ncc(Cl)cc2=O)n1 [Compound Z135]
Firefly, cmpd/DMSO (mean): 1.0

CC(C)(C)c1ccc(S(=O)(=O)c2cc3ccccc3oc2=O)cc1 [Compound C103]
Firefly, cmpd/DMSO repeat 1 [1]: 2.8 | Firefly, cmpd/DMSO repeat 2 [1]: 1.4

Cc1cccc(NC(=O)c2ccc3oc(=O)c(S(=O)(=O)c4ccc(F)cc4)cc3c2)c1C [Compound C135]
Firefly, cmpd/DMSO repeat 1 [1]: 5.6 | Firefly, cmpd/DMSO repeat 2 [1]: 4.9

N#Cc1cccc(S(=O)(=O)c2cc3cc(Cl)ccc3oc2=O)c1 [Compound C195]
Firefly, cmpd/DMSO repeat 1 [1]: 38.7 | Firefly, cmpd/DMSO repeat 2 [1]: 29.4 | Firefly/Renilla (NR2F6 stable, clone F4) (Table 12): 2.1 | Firefly, NR2F6 stable (clone F4)/pGL4 (Table 12): 7.7 | Firefly, cmpd/DMSO repeat 1 (Table 12): 38.7 | Firefly, cmpd/DMSO repeat 2 (Table 12): 29.4

COc1ccc2oc(=O)c(S(=O)(=O)c3ccc(C)c(C)c3)cc2c1 [Compound C144]
Firefly, cmpd/DMSO repeat 1 [1]: 0.9 | Firefly, cmpd/DMSO repeat 2 [1]: 0.8

O=c1oc2ccccc2cc1S(=O)(=O)c1ccc(Br)cc1 [Compound C102]
Firefly, cmpd/DMSO repeat 1 [1]: 13.0 | Firefly, cmpd/DMSO repeat 2 [1]: 15.3 | Firefly/Renilla (NR2F6 stable, clone F4) (Table 12): 2.4 | Firefly, NR2F6 stable (clone F4)/pGL4 (Table 12): 5.9 | Firefly, cmpd/DMSO repeat 1 (Table 12): 13.0 | Firefly, cmpd/DMSO repeat 2 (Table 12): 15.3

O=c1oc2ccc(Cl)cc2cc1S(=O)(=O)c1cccc(Cl)c1 [Compound C191]
Firefly, cmpd/DMSO repeat 1 [1]: 8.6 | Firefly, cmpd/DMSO repeat 2 [1]: 12.8

Cc1ccc(S(=O)(=O)c2cc3cc(C(=O)Nc4ccc(C)c(C)c4)ccc3oc2=O)cc1 [Compound C168]
Firefly, cmpd/DMSO repeat 1 [1]: 11.8 | Firefly, cmpd/DMSO repeat 2 [1]: 11.4

COc1cccc2cc(S(=O)(=O)c3ccc(F)c(Cl)c3)c(=O)oc12 [Compound C250]
Firefly, cmpd/DMSO repeat 1 (Table 9): 1.2 | Firefly, cmpd/DMSO repeat 2 (Table 9): 1.8

COc1cccc2cc(S(=O)(=O)c3ccc(C)c(Cl)c3)c(=O)oc12 [Compound C228]
Firefly, cmpd/DMSO repeat 1 (Table 9): 1.0 | Firefly, cmpd/DMSO repeat 2 (Table 9): 1.3

COc1cc(Br)cc2cc(S(=O)(=O)c3ccc(F)c(C)c3)c(=O)oc12 [Compound C298]
Firefly, cmpd/DMSO repeat 1 (Table 11): 2.2 | Firefly, cmpd/DMSO repeat 2 (Table 11): 3.2

O=c1oc2ccc(Cl)cc2cc1S(=O)(=O)c1ccc(Cl)c(Cl)c1 [Compound C151]
Firefly, cmpd/DMSO repeat 1 [1]: 3.6 | Firefly, cmpd/DMSO repeat 2 [1]: 5.5

CC(C)(C)c1ccc(S(=O)(=O)c2cc3cc(F)ccc3oc2=O)cc1 [Compound C216]
Firefly, cmpd/DMSO repeat 1 [1]: 1.3 | Firefly, cmpd/DMSO repeat 2 [1]: 1.0

COc1cc(NC(=O)c2ccc3oc(=O)c(S(=O)(=O)c4ccc(F)cc4)cc3c2)cc(OC)c1 [Compound C132]
Firefly, cmpd/DMSO repeat 1 [1]: 1.4 | Firefly, cmpd/DMSO repeat 2 [1]: 1.4

Cc1ccc(NC(=O)c2ccc3oc(=O)c(S(=O)(=O)c4ccc(F)cc4)cc3c2)cc1C [Compound C169]
Firefly, cmpd/DMSO repeat 1 [1]: 8.8 | Firefly, cmpd/DMSO repeat 2 [1]: 10.6

COc1ccc2cc(S(=O)(=O)c3ccc(C(C)(C)C)cc3)c(=O)oc2c1 [Compound C268]
Firefly, cmpd/DMSO repeat 1 [1]: 2.8 | Firefly, cmpd/DMSO repeat 2 [1]: 3.1

Cc1cc(C)c(S(=O)(=O)NCc2nc3nc(C)cc(C)n3n2)c(C)c1 [Compound E10]
Firefly F4, cmpd/DMSO (mean) [2]: 1.1 | Firefly NR2F6 full length, cmpd/DMSO (mean) [2]: 1.3 | Firefly F4, cmpd/DMSO (mean) [3]: 1.0 | Firefly NR2F6 full length, cmpd/DMSO (mean) [3]: 1.5 | Firefly F4, cmpd/DMSO (mean) [4]: 0.8 | Firefly NR2F6 full length, cmpd/DMSO (mean) [4]: 1.1

Cc1ccc(S(=O)(=O)c2cc3cc(Cl)ccc3oc2=O)cc1C [Compound C143]
Firefly, cmpd/DMSO repeat 1 [1]: 15.2 | Firefly, cmpd/DMSO repeat 2 [1]: 14.5

Cc1cc(S(=O)(=O)c2cc3cc(Cl)ccc3oc2=O)ccc1F [Compound C224]
Firefly, cmpd/DMSO repeat 1 [1]: 6.6 | Firefly, cmpd/DMSO repeat 2 [1]: 11.4

O=c1oc2c(Br)cc(Br)cc2cc1S(=O)(=O)c1ccc(Cl)c(Cl)c1 [Compound C287]
Firefly, cmpd/DMSO repeat 1 (Table 11): 3.0 | Firefly, cmpd/DMSO repeat 2 (Table 11): 2.6

Cc1cccn2cc(CNS(=O)(=O)c3ccccc3F)nc12 [Compound E52]
Firefly F4, cmpd/DMSO (mean) [2]: 0.7 | Firefly NR2F6 full length, cmpd/DMSO (mean) [2]: 1.0 | Firefly F4, cmpd/DMSO (mean) [3]: 0.9 | Firefly NR2F6 full length, cmpd/DMSO (mean) [3]: 1.3 | Firefly F4, cmpd/DMSO (mean) [4]: 0.7 | Firefly NR2F6 full length, cmpd/DMSO (mean) [4]: 1.4

Cc1ccc(S(=O)(=O)c2cc3cc([N+](=O)[O-])ccc3oc2=O)cc1 [Compound C211]
Firefly, cmpd/DMSO repeat 1 [1]: 5.8 | Firefly, cmpd/DMSO repeat 2 [1]: 17.7

Cc1ccc(S(=O)(=O)c2cc3cc(Br)ccc3oc2=O)cc1 [Compound C197]
Firefly, cmpd/DMSO repeat 1 [1]: 17.6 | Firefly, cmpd/DMSO repeat 2 [1]: 14.8 | Firefly/Renilla (NR2F6 stable, clone F4) (Table 13): 1.1 | Firefly, NR2F6 stable (clone F4)/pGL4 (Table 13): 6.3 | Firefly, cmpd/DMSO repeat 1 (Table 13): 17.6 | Firefly, cmpd/DMSO repeat 2 (Table 13): 14.8

CCOc1cccc2cc(S(=O)(=O)c3ccc(Br)cc3)c(=O)oc12 [Compound C239]
Firefly, cmpd/DMSO repeat 1 (Table 9): 1.4 | Firefly, cmpd/DMSO repeat 2 (Table 9): 2.2

O=c1oc2ccc(Br)cc2cc1S(=O)(=O)c1ccc(F)cc1 [Compound C198]
Firefly, cmpd/DMSO repeat 1 [1]: 1.0 | Firefly, cmpd/DMSO repeat 2 [1]: 0.8

Cc1cc(S(=O)(=O)c2cc3cc(F)cc(F)c3oc2=O)ccc1F [Compound C292]
Firefly, cmpd/DMSO repeat 1 (Table 11): 18.3 | Firefly, cmpd/DMSO repeat 2 (Table 11): 14.8 | Firefly/Renilla (NR2F6 stable, clone F4) (Table 13): 1.1 | Firefly, NR2F6 stable (clone F4)/pGL4 (Table 13): 9.7 | Firefly, cmpd/DMSO repeat 1 (Table 13): 18.3 | Firefly, cmpd/DMSO repeat 2 (Table 13): 14.8

COc1cccc(S(=O)(=O)c2cc3ccc(OC)cc3oc2=O)c1 [Compound C259]
Firefly, cmpd/DMSO repeat 1 [1]: 1.3 | Firefly, cmpd/DMSO repeat 2 [1]: 1.9

Cc1cc(S(=O)(=O)c2cc3cc(F)ccc3oc2=O)ccc1F [Compound C217]
Firefly, cmpd/DMSO repeat 1 [1]: 1.8 | Firefly, cmpd/DMSO repeat 2 [1]: 1.4

Cc1ccc(NC(=O)c2ccc3oc(=O)c(S(=O)(=O)c4ccc(Cl)cc4)cc3c2)cc1C [Compound C170]
Firefly, cmpd/DMSO repeat 1 [1]: 1.7 | Firefly, cmpd/DMSO repeat 2 [1]: 1.6

Cc1ccc(NC(=O)c2ccc3oc(=O)c(S(=O)(=O)c4ccccc4)cc3c2)c(C)c1 [Compound C164]
Firefly, cmpd/DMSO repeat 1 [1]: 29.3 | Firefly, cmpd/DMSO repeat 2 [1]: 19.6 | Firefly/Renilla (NR2F6 stable, clone F4) (Table 12): 2.1 | Firefly, NR2F6 stable (clone F4)/pGL4 (Table 12): 8.2 | Firefly, cmpd/DMSO repeat 1 (Table 12): 29.3 | Firefly, cmpd/DMSO repeat 2 (Table 12): 19.6

From US11377442B2, “Small molecule agonists and antagonists of NR2F6 activity” (ZANDER THERAPEUTICS, INC., priority 2016, dated 2022)
